Test results reported in US11136311B2, “Heteroaromatic derivatives as NIK inhibitors” (Janssen Pharmaceutica NV, priority 2016, dated 2021).
Like-named read-outs stand apart in the source and are kept apart here.

Columns and labels:
[1] = system: P-IKKα levels in L363 cells; experiment: Effect of compounds on P-IKKα levels in L363 (NIK translocated multiple myeloma) cells; format: cell-based, human; conditions: averaged values, read-out: Inhibition of pIKKα_L-363 (IC50 (nM))
Procedure: Effect of compounds on P-IKKα levels in L363 (NIK translocated multiple myeloma) cells
All compounds tested were dissolved in DMSO and further dilutions were made in culture medium. Final DMSO concentration was 1% (v/v) in cell assays. The human L363 cells (ATCC) were cultured in RPMI 1640 medium supplemented with GlutaMax and 10% fetal calf serum (PAA). Cells were routinely maintained at densities of 0.2×10^6 cells per ml-1×10^6 cells per ml at 37° C. in a humidified 5% CO2 atmosphere. Cells were passaged twice a week splitting back to obtain the low density. Cells were seeded in 96 well plates (Nunc 167008) at 2×10^6 per ml media in a volume of 75 μl per well plus 25 μl 1 μg/ml recombinant human B-cell activating factor (BAFF/BLyS/TNFSF13B). Seeded cells were incubated at 37° C. in a humidified 5% CO2 atmosphere for 24 hr. Drugs and/or solvents were added (20 μl) to a final volume of 120 μl. Following 2 hr treatment plates were removed from the incubator and cell lysis was achieved by the addition of 30 μl 5× lysis buffer followed by shaking on a plate shaker at 4° C. for 10 min. At the end of this incubation lysed cells were centrifuged at 800×g for 20 min at 4° C. and the lysate was assessed for P-IKKα levels by sandwich immuno-assay carried out in anti-rabbit antibody coated Mesoscale plates. Within an experiment, the results for each treatment were the mean of 2 replicate wells. For initial screening purposes, compounds were tested using an 8 point dilution curve (serial 1:3 dilutions). For each experiment, controls (containing MG132 and BAFF but no test drug) and a blank incubation (containing MG132 and BAFF and 10 μM ADS125117, a test concentration known to give full inhibition) were run in parallel. The blank incubation value was subtracted from all control and sample values. To determine the IC50 a sigmoidal curve was fitted to the plot of % inhibition of control P-IKKα levels versus Log10 compound concentration.

[2] = molecular target: recombinant human NF-kappaB-inducing kinase (NIK/MAP3K14) (Homo sapiens (Human), UniProt Q99558); experiment: Inhibition of auto-phosphorylation of recombinant human NIK/MAP3K14 activity (AlphaScreen); format: biochemical; conditions: averaged values over all measurements on all batches
Method in brief: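 AlphaScreen read-out, using anti-phospho-IKK Ser176/180 antibody, tracked NIK autophosphorylation after 1 h at 25° C. Reactions held 0.2 nM GST-NIK, 25 microM ATP and compound in 1% DMSO, Tris pH 7.5 buffer. IC50 fitted sigmoidally to blank-subtracted inhibition data.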

JJN-3 cells = experiment: Antiproliferative activity on JJN-3 (NIK translocated) multiple myeloma cells (CellTiter-Glo); format: cell-based, human; conditions: JJN-3 (NIK translocated) cells, 96 hr, averaged values, read-out: JJN-3 Proliferation inhibition (IC50 (nM))
Method in brief: (§1)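 Viability was read by CellTiter-Glo after 96 hr compound exposure (9-point, 1:3 serial dilutions; 0.3% DMSO final). JJN-3 and KMS12-BM cells were seeded at 15000 and 20000 per well respectively in RPMI 1640/10% FCS; blank-subtracted signals were given as percent of drug-free controls.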

KMS12-BM cells = experiment: Antiproliferative activity on KMS12-BM (NIK WT) multiple myeloma cells (CellTiter-Glo); format: cell-based, human; conditions: KMS12-BM (NIK WT) cells, 96 hr, averaged values, read-out: KMS-12 Proliferation inhibition (IC50 (nM))
Method in brief: as §1

[3] = Homo sapiens, L-363, L363 cells

Chain of recombinant human NF-kappaB-inducing kinase (NIK/MAP3K14) (Q99558 whole entry): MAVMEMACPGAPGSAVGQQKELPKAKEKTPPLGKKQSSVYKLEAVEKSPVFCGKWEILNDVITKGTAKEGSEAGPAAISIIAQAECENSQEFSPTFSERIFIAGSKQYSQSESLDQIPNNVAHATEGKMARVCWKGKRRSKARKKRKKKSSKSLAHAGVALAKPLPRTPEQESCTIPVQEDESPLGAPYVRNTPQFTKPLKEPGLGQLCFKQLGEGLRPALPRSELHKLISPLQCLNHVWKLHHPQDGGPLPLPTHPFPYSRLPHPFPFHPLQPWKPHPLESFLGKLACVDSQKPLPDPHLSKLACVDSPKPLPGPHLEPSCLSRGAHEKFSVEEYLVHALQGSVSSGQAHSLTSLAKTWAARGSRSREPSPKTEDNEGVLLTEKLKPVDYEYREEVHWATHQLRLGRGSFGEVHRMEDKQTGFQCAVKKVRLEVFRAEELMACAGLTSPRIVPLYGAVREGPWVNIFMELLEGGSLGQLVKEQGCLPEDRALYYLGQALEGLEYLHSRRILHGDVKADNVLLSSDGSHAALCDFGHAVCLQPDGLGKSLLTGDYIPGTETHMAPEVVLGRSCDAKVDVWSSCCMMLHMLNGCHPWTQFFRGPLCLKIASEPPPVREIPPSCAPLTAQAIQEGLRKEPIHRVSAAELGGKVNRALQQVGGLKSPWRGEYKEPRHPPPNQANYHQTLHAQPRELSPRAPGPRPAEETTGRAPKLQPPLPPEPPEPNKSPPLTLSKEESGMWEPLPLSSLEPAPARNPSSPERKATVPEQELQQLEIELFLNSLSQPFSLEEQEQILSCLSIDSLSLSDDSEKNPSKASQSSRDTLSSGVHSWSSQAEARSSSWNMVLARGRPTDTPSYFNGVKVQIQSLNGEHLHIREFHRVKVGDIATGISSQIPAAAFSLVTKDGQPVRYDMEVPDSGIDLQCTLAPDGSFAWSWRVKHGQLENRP

Row | SMILES | IC50 [1, 3] [nM] | IC50 [2] [nM] | IC50 (JJN-3 cells; Homo sapiens, JJN-3, 96 h) [nM] | IC50 (KMS12-BM cells; Homo sapiens, KMS-12-BM, 96 h) [nM] | IC50 ([1]; L363 cells) [nM] | IC50 (JJN-3 cells) [nM] | IC50 (KMS12-BM cells) [nM]
1 | CN1CCN(C(=O)c2nn(CC(F)F)cc2Nc2nccc(-c3cc(C#N)c4c(c3)[C@@](C)(CO)CN4)n2)CC1 [Compound 184] | 17 | 5.4 | 224 | > 10000 |  |  | 
2 | C[C@]1(CO)CNc2c(C#N)cc(-c3ccnc(Nc4cc(C(=O)N5CCCC5)n(C5CCCC5)n4)n3)cc21 [Compound 213] | 27 | 5.6 | 95 | > 10000 |  |  | 
3 | C[C@]1(CO)CNc2c(C#N)cc(-c3ccnc(Nc4cc(Cl)nn4C[C@H]4CCCO4)n3)cc21 [Compound 114] | 30 | 6 | 151 | 1070 |  |  | 
4 | CNC(=O)c1cc(Nc2nccc(-c3cc(C#N)c4c(c3)[C@@](C)(CO)CN4)n2)nn1CCC1CC1 [Compound 201] |  | 3.4 |  |  | 2 | 100 | > 10000
5 | Cc1cc(Nc2nccc(-c3cc(C#N)c4c(c3)[C@@](C)(CO)CN4)n2)nn1CC1CCCCO1 (stereo partly shown) [Compound 71] |  | 2.8 |  |  | 4 | 102 | 813
6 | Cc1cc(Nc2nccc(-c3cc(C#N)c4c(c3)[C@@](C)(CO)CN4)n2)n(CC2CCN(C)CC2)n1 [Compound 83] | 514 | 10 | 111 | 148 |  |  | 
7 | Cc1cc(Nc2nccc(-c3cc(C#N)c4c(c3)[C@@](C)(CO)CN4)n2)nn1CC1CCOCC1 [Compound 60] | 5 | 2 | 72 | ~501 |  |  | 
8 | Cn1ccc(Nc2nccc(-c3cc(C#N)c4c(c3)[C@@](C)(CN3CCN(C5CC5)CC3)CN4)n2)n1 [Compound 176] | 76 | 32 | 65 | ~3310 |  |  | 
9 | Cc1cc(Nc2nccc(-c3cc(C#N)c4c(c3)[C@@](C)(CO)CN4)n2)nn1CCN1CCOCC1 [Compound 182] | 1 | 1.7 | 151 | 1380 |  |  | 
10 | CC(=O)OC[C@@]1(C)CNc2c(C#N)cc(-c3ccnc(Nc4cc(C)nn4CC4CCN(C)CC4)n3)cc21 [Compound 178] |  | 20 |  |  | 141 | 98 | 2340
11 | Cc1cc(Nc2nccc(-c3cc(C#N)c4c(c3)[C@@](C)(CO)CN4)n2)n(CC2CCOC2)n1 (single isomer, unassigned) [Compound 81] | 11 | 4.3 | 195 |  |  |  | 851
12 | C[C@]1(CO)CNc2c(C#N)cc(-c3ccnc(Nc4cc(Cl)nn4C[C@@H]4CCCO4)n3)cc21 [Compound 113] | 42 | 6.2 | 69 | 3020 |  |  | 
13 | Cc1cc(Nc2nccc(-c3cc(C#N)c4c(c3)[C@@](C)(CO)CN4)n2)nn1CC1CCCCO1 (stereo partly shown) [Compound 70] | 6 | 3.8 |  |  |  | 209 | 1860
14 | C[C@]1(CO)CNc2c(C#N)cc(-c3ccnc(Nc4cc(Cl)nn4C[C@@H]4COCCO4)n3)cc21 [Compound 126] | 170 | 4.8 | 468 | > 10000 |  |  | 

Results, then the compound that gave them:

Row | IC50 [1, 3] [nM] | IC50 [2] [nM] | IC50 (JJN-3 cells; Homo sapiens, JJN-3, 96 h) [nM] | IC50 (KMS12-BM cells; Homo sapiens, KMS-12-BM, 96 h) [nM] | IC50 ([1]; L363 cells) [nM] | IC50 (JJN-3 cells) [nM] | IC50 (KMS12-BM cells) [nM] | SMILES
15 | 11 | 7.2 | ~1380 | > 10000 |  |  |  | CNC(=O)c1nn(CC(F)F)cc1Nc1nccc(-c2cc(C#N)c3c(c2)[C@@](C)(CO)CN3)n1 [Compound 187]
16 | 170 | 15 | 2400 | > 10000 |  |  |  | Cn1cc(Nc2nccc(-c3cc(C#N)c4c(c3)[C@@](C)(CO)CN4)n2)c(CN2CCOCC2)n1 [Compound 150]
17 | 15 | 4.9 | 646 | 2290 |  |  |  | Cc1cc(Nc2nccc(-c3cc(C#N)c4c(c3)[C@@](C)(CO)CN4)n2)n(CCC2(C)COC2)n1 [Compound 154]
18 | 182 | 13 | 1120 | > 10000 |  |  |  | Cc1cc(Nc2nccc(-c3cc(C#N)c4c(c3)[C@@](C)(CO)CN4)n2)n(C[C@@H]2CN(C)CCO2)n1 [Compound 139]
19 |  | 10 |  |  | 91 | 1510 | > 10000 | C[C@@]1(CO)CNc2c(C#N)cc(-c3ccnc(Nc4cnn(CCC5CC5)c4CN4CCOCC4)n3)cc21 [Compound 159]
20 | 13 | 2 | 871 | 7080 |  |  |  | CC(C)Cn1nc(CO)cc1Nc1nccc(-c2cc(C#N)c3c(c2)[C@@](C)(CO)CN3)n1 [Compound 151]
21 | 20 | 5.5 | 447 | > 10000 |  |  |  | COCCCn1cc(Nc2nccc(-c3cc(C#N)c4c(c3)[C@@](C)(CO)CN4)n2)c(CCC(C)C)n1 [Compound 105]
22 | ~41 | 3.7 | 417 | 1900 |  |  |  | C[C@]1(CO)CNc2c(C#N)cc(-c3ccnc(Nc4cc(C#N)nn4CCC4CC4)n3)cc21 [Compound 128]
23 | 7 | 2.2 | 417 | ~1780 |  |  |  | Cc1c(Nc2nccc(-c3cc(C#N)c4c(c3)[C@@](C)(CO)CN4)n2)cnn1CCN1CCOCC1 [Compound 170]
24 | 11 | 4.6 | 154 | ~7620 |  |  |  | COCCOc1nn(CC(F)F)cc1Nc1nccc(-c2cc(C#N)c3c(c2)[C@@](C)(CO)CN3)n1 [Compound 217]
25 | 2 | 1 | 58 | ~1860 |  |  |  | Cc1nn(CC(F)F)cc1Nc1nccc(-c2cc(C#N)c3c(c2)[C@@](C)(CO)CN3)n1 [Compound 132]
26 | 25 | 5 | 282 | > 10000 |  |  |  | CC(C)CCc1c(Nc2nccc(-c3cc(C#N)c4c(c3)[C@@](C)(CO)CN4)n2)cnn1C[C@@H]1COCCO1 [Compound 121]
27 | 219 | 6.8 | 49 | 832 |  |  |  | CN1CCC(Cn2nc(Cl)cc2Nc2nccc(-c3cc(C#N)c4c(c3)[C@@](C)(CO)CN4)n2)CC1 [Compound 124]
28 | 43 | 9.6 | 3160 | > 10000 |  |  |  | CC(C)Cn1nc(P(C)(C)=O)cc1Nc1nccc(-c2cc(C#N)c3c(c2)[C@@](C)(CO)CN3)n1 [Compound 119]
29 | 4 | 1.6 | 100 | 871 |  |  |  | Cc1cc(Nc2nccc(-c3cc(C#N)c4c(c3)[C@@](C)(CO)CN4)n2)nn1CCC1CC1 [Compound 95]
30 | 4 | 2 | 48 | ~4790 |  |  |  | C[C@]1(CO)CNc2c(C#N)cc(-c3ccnc(Nc4cnn(CCN5CCOCC5)c4Cl)n3)cc21 [Compound 208]
31 |  | 8.3 |  | 6460 | 145 | 174 |  | Cc1cc(Nc2nccc(-c3cc(C#N)c4c(c3)[C@@](C)(CO)CN4)n2)n(CC2CCCN(C)C2)n1 (single isomer, unassigned) [Compound 140]
32 | 20 | 1.6 | 195 | ~447 |  |  |  | Cc1c(Nc2nccc(-c3cc(C#N)c4c(c3)[C@@](C)(CO)CN4)n2)cnn1C1CCN(C)CC1 [Compound 123]
33 | 3 | 2.9 | 288 | 9770 |  |  |  | CC(C)CCc1c(Nc2nccc(-c3cc(C#N)c4c(c3)[C@@](C)(CO)CN4)n2)cnn1C [Compound 99]
34 | 37 | 11 | 182 | 457 |  |  |  | CC(C)CCn1nc(C#N)cc1Nc1nccc(-c2cc(C#N)c3c(c2)[C@@](C)(CO)CN3)n1 [Compound 93]
